# Patent US6849648B2, “Phenylene alkyne matrix metalloproteinase inhibitors” (Warner-Lambert Company, priority 2001, dated 2005)
# Like-named read-outs stand apart in the source and are kept apart here.
# Experiments:
# [1] = biological target: MMP-14CD (catalytic domain of MMP-14) (Homo sapiens, UniProt P50281); experiment: Thiopeptolide hydrolysis assay, catalytic domain of MMP-14; assay type: biochemical; settings: Table 3; MMP-14 catalytic domain; read-out: IC50 (μM) MMP14 (CD)
# Description: (§1) The assays measure the amount by which a test compound reduces the hydrolysis of a thiopeptolide substrate caused by a matrix metalloproteinase enzyme. Such assays are described in detail by Ye et al., in Biochemistry, 1992;31(45):11231-11235, which is incorporated herein by reference.
# (§2) Thiopeptolide substrates show virtually no decomposition or hydrolysis in the absence of a matrix metalloproteinase enzyme. A typical thiopeptolide substrate commonly utilized for assays is Ac-Pro-Leu-Gly-thioester-Leu-Leu-Gly-OEt. A 100 μL assay mixture will contain 50 mM of 2-morpholinoethane sulfonic acid monohydrate (MES, pH 6.0) 10 mM CaCl2, 100 μM thiopeptolide substrate, and 1 mM 5,5′-dithio-bis-(2-nitro-benzoic acid) (DTNB). The thiopeptolide substrate concentration is varied from 10 to 800 μM to obtain Km and Kcat values. The change in absorbance at 405 nm is monitored on a Thermo Max microplate reader (molecular Devices, Menlo Park, Calif.) at room temperature (22° C.). The calculation of the amount of hydrolysis of the thiopeptolide substrate is based on E412=13600 m^−1 cm^−1 for the DTNB-derived product 3-carboxy-4-nitrothiophenoxide. Assays are carried out with and without matrix metalloproteinase inhibitor compounds, and the amount of hydrolysis is compared for a determination of inhibitory activity of the test compounds.
# (§3) Several representative compounds have been evaluated for their ability to inhibit various matrix metalloproteinase enzymes. Table 1 below presents inhibitory activity as IC50's in micromolar for representative invention compounds. In the table, MMP-1FL refers to full length interstitial collagenase; MMP-2FL refers to full length Gelatinase A; MMP-3CD refers to the catalytic domain of stromelysin; MMP-7FL refers to full length matrilysin; MMP-9FL refers to full length Gelatinase B; MMP-13CD refers to the catalytic domain of collagenase 3; and MMP-14CD refers to the catalytic domain of MMP-14. Test compounds were evaluated at various concentrations in order to determine their respective IC50 values, the micromolar concentration of compound required to cause a 50% inhibition of the hydrolytic activity of the respective enzyme.
# [2] = biological target: T1, MMP-2FL (full length Gelatinase A) (Homo sapiens, UniProt P08253); experiment: Thiopeptolide hydrolysis assay, full length Gelatinase A; assay type: biochemical; settings: Table 3; full-length MMP02
# T1 sequence (P08253 110-660): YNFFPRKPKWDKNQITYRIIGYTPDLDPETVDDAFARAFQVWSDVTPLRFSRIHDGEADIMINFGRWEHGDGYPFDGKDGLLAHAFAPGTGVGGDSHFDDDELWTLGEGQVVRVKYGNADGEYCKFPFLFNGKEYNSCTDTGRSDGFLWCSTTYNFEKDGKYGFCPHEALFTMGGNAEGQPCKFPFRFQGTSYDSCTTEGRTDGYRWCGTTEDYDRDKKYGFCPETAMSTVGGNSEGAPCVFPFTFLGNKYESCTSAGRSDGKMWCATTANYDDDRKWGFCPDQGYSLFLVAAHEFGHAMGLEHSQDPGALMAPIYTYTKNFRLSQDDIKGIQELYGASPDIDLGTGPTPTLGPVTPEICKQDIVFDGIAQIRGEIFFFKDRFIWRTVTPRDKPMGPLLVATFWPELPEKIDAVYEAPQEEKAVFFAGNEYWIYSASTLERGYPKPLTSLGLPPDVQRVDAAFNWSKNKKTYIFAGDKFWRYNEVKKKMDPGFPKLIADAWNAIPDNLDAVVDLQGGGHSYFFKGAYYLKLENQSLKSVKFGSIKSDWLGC
# Description: as §1, §2, §3
# [3] = biological target: MMP-9FL (full length Gelatinase B) (Homo sapiens, UniProt P14780); experiment: Thiopeptolide hydrolysis assay, full length Gelatinase B; assay type: biochemical; settings: Table 3; full-length MMP09
# Description: as §1, §2, §3
# [4] = biological target: T2, MMP-1FL (full length interstitial collagenase) (Homo sapiens, UniProt P03956); experiment: Thiopeptolide hydrolysis assay, full length interstitial collagenase; assay type: biochemical; settings: Table 3; full-length MMP01
# T2 sequence (P03956 100-469): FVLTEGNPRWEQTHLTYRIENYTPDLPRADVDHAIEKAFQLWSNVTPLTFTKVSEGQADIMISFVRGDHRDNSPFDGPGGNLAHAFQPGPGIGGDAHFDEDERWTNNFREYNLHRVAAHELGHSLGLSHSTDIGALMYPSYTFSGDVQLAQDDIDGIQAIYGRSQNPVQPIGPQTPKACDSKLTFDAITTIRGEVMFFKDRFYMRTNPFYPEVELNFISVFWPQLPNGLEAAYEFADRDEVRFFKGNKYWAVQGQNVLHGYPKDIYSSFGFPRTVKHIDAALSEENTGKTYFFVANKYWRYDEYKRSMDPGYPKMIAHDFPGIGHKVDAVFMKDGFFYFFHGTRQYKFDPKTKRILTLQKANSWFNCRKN
# Description: as §1, §2, §3
# [5] = biological target: MMP-13CD (catalytic domain of collagenase 3) (Homo sapiens, UniProt P45452); experiment: Thiopeptolide hydrolysis assay, catalytic domain of collagenase 3; assay type: biochemical
# Description: as §1, §2, §3
# [6] = biological target: MMP-3CD (catalytic domain of stromelysin) (Homo sapiens, UniProt P08254); experiment: Thiopeptolide hydrolysis assay, catalytic domain of stromelysin; assay type: biochemical; settings: Table 3; MMP03 catalytic domain
# Description: as §1, §2, §3
# [7] = biological target: T3, MMP-7FL (full length matrilysin) (Homo sapiens, UniProt P09237); experiment: Thiopeptolide hydrolysis assay, full length matrilysin; assay type: biochemical; settings: Table 3; full-length MMP07
# T3 sequence (P09237 95-267): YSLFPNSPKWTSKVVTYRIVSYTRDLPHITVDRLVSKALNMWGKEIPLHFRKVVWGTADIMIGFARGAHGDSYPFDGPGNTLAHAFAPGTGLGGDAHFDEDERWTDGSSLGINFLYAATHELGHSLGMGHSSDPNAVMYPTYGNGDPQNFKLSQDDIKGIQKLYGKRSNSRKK
# Description: as §1, §2, §3
# [8] = Table 1, thiopeptolide substrate, read-out: IC50 (μM) Versus MMPs, MMP13 (CD)
# [9] = Table 2, thiopeptolide substrate, read-out: MMP-13CD (IC50)
# [10] = Table 3, MMP-13 catalytic domain, read-out: IC50 (μM) MMP13 (CD)
# Chain of MMP-9FL (full length Gelatinase B) (P14780 94-707, species assumed): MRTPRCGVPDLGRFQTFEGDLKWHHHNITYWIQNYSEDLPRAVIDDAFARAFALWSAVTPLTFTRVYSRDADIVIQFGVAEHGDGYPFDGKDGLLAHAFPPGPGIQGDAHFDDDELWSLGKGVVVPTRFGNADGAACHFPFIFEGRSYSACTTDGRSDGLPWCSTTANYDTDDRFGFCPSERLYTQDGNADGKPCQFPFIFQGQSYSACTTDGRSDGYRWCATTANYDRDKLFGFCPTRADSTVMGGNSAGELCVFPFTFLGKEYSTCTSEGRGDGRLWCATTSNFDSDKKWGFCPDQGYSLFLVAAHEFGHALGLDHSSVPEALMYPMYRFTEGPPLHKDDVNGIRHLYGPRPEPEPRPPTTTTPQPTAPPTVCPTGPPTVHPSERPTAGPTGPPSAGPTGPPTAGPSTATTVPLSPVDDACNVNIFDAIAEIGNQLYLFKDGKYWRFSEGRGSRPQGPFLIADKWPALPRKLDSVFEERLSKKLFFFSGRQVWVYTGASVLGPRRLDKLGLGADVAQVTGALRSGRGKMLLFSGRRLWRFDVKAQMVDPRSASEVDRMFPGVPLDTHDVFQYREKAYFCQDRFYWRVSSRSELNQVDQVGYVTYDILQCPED
# Chain of MMP-3CD (catalytic domain of stromelysin) (P08254 100-272 limits assumed): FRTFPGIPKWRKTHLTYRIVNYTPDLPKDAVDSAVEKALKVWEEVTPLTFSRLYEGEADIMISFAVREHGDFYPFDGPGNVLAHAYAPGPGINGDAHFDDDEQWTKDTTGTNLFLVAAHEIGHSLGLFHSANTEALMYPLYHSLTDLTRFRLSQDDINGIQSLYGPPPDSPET
melting point [°C],IC50 [1] [µM],IC50 [2] [µM],IC50 [3] [µM],IC50 [4] [µM],"IC50 [5, 8] [µM]",IC50 [6] [µM],IC50 [7] [µM],"IC50 [5, 9] [µM]","IC50 [5, 10] [µM]",SMILES
208 to 209,> 30,> 30,> 30,> 30,0.0042,> 10,> 30,,,"CN1C(=O)N(Cc2ccc(C(=O)O)cc2)S(=O)(=O)c2cc(C#CCc3ccccc3)ccc21 [Example 2, 4-[4-Methyl-1,1,3-trioxo-7-(3-phenyl-prop-1-ynyl)-3,4-dihydro-1H-1l^6-benzo[1,2,4]thiadiazin-2-ylmethyl]-benzoic acid]"
,,,,,,,,66,,"N#Cc1ccc(CNC(=O)c2cccc(C#CCn3cncn3)c2)cc1 [Example 5, N-(4-Cyano-benzyl)-3-(3-[1,2,4]-triazol-1-yl-prop-1-ynyl)-benzamide]"
,,,,,,,,,0.079,"O=C(O)c1ccc(CN2C(=O)Nc3ccc(C#CCCc4ccccc4)cc3S2(=O)=O)cc1 [Example 19, 4-[1,1,3-Trioxo-7-(4-phenyl-but-1-ynyl)-3,4-dihydro-1H-1λ^6-benzo[1,2,4]thiadiazin-2-ylmethyl]-benzoic acid]"
125 to 127,> 100,> 30,> 100,> 100,2.2,> 30,> 30,,,"CN1C(=O)N(Cc2ccccc2)S(=O)(=O)c2cc(C#CCc3ccccc3)ccc21 [Example 1, 2-Benzyl-4-methyl-1,1-dioxo-7-(3-phenyl-prop-1ynyl)-1,4-dihydro-2H-1l^6-benzo[1,2,4]thiadiazin-3-one]"
,> 30,> 100,> 100,> 30,,5.6,16,,0.00517,"O=C(O)c1ccc(CN2C(=O)Nc3ccc(C#CCc4ccccc4)cc3S2(=O)=O)cc1 [Example 17, 4-[1,1,3-Trioxo-7-(3-phenyl-prop-1-ynyl)-3,4-dihydro-1H-1λ^6-benzo[1,2,4]thiadiazin-2-ylmethyl]-benzoic acid]"
,,,,,,,,100,,"N#Cc1ccc(CNC(=O)c2cccc(C#CCn3ccnn3)c2)cc1 [Example 4, N-(4-Cyano-benzyl)-3-(3-[1,2,3]-triazol-1-yl-prop-1-ynyl)-benzamide]"
,,,,,,,,0.029,,O=C(O)c1ccc(CNC(=O)c2cccc(C#CCc3ccccc3)c2)cc1 [Example 6]
,> 30,> 100,> 30,> 30,,> 30,> 30,,0.12,"O=C1Nc2ccc(C#CCc3ccccc3)cc2S(=O)(=O)N1Cc1ccccc1 [Example 3, 2-Benzyl-1,1-dioxo-7-(3-phenyl-prop-1-ynyl)-1,4-dihydro-2H-1l^6-benzo[1,2,4]thiadiazin-3-one]"
,> 30,> 30,> 30,> 30,,12,> 30,,0.0315,"CN1c2ccc(C#CCc3ccccc3)cc2C(=O)N(Cc2ccc(C(=O)O)cc2)S1(=O)=O [Example 16, 4-[1-methyl-2,2,4-trioxo-6-(3-phenylprop-1-ynyl)-1,4-dihydro-2H-2λ^6-benzo[1,2,6]-thiadiazin-3-ylmethyl]benzoic acid]"
,> 30,> 30,> 100,> 30,,> 10,24,,0.0104,"CN1c2ccc(C#CCc3ccccc3)cc2C(=O)N(Cc2ccc(C(=O)O)cc2)[S+]1[O-] (stereo not shown) [Example 15, 4-[1-Methyl-2,4-dioxo-6-(3-phenyl-prop-1-ynyl)-1,4-dihydro-2H-2λ^4-benzo[1,2,6]thiadiazin-3-ylmethyl]benzoic acid]"
,> 30,> 30,> 30,> 30,,> 30,> 10,,0.185,"COc1ccc(CN2C(=O)Nc3ccc(C#CCc4ccccc4)cc3S2(=O)=O)cc1 [Example 18, 2-(4-Methoxy-benzyl)-1,1-dioxo-7-(3-phenyl-prop-1-ynyl)-1,4-dihydro-2H, 1λ^6-benzo[1,2,4]thiadiazin-3-one]"
